Test results as given in ChEMBL document CHEMBL4393729, “Sleep modulating agents” (Bioorg Med Chem Lett, 2019).

Experiments:
[1] = Half life in human up to 3600 mg; assay type: ADME
[2] = Half life in human at 18 to 36 mg; assay type: ADME
[3] = Half life in human at 25 to 400 mg
[4] = Oral bioavailability in human; assay type: ADME, organism-based; settings: in vivo
[5] = Half life in human at 8 mg treated 30 mins before bedtime; assay type: ADME; settings: in vivo
[6] = Half life in human at 200 mg; assay type: ADME
[7] = Half life in human at 75 to 300 mg; assay type: ADME
[8] = Half life in human at 1 to 2 mg; assay type: ADME
[9] = Half life in human at 20 mg; assay type: ADME
[10] = Half life in human at 1 to 6 mg; assay type: ADME
[11] = Half life in human at 5 to 10 mg; assay type: ADME
[12] = Half life in human at 300 mg bid; assay type: ADME; settings: in vivo
[13] = Half life in human at 2250 mg administered as two doses; assay type: ADME; settings: in vivo
[14] = Half life in human at 1 to 3 mg; assay type: ADME
[15] = Half life in human at 5 to 20 mg; assay type: ADME
[16] = Half life in human at 5 mg administered three times in a day; assay type: ADME; settings: in vivo
[17] = Half life in human at 150 mg; assay type: ADME
[18] = Half life in human at 20 to 50 mg; assay type: ADME
[19] = Half life in human; assay type: ADME
[20] = Half life in human at 75 mg; assay type: ADME
[21] = Half life in human at 1 mg; assay type: ADME

`NCC1(CC(=O)O)CCCCC1` [GABAPENTIN] showed a half-life [1] of 5 to 7 h.

Molecule `Clc1ccc(CCCOCCCN2CCCCC2)cc1` [PITOLISANT] has a half-life [2] of 10 h.

Work on `OCCOCCN1CCN(C2=Nc3ccccc3Sc3ccccc32)CC1` [QUETIAPINE] yielded a half-life [3] of 6 h.

With `CCC(=O)NCC[C@@H]1CCc2ccc3c(c21)CCO3` [RAMELTEON] the bioavailability [4] was 1.8% and the half-life [5] was 1 to 2.6 h.

Work on `NC(=O)C[S@+]([O-])C(c1ccccc1)c1ccccc1` [(S)-MODAFINIL] yielded a half-life [6] of 4 h.

In the case of `NC(=O)OC[C@H](N)Cc1ccccc1` [SOLRIAMFETOL], the half-life [7] is reported as 6 to 8 h.

For `Clc1ccc2c(c1)C(c1ccccc1)=NCc1nncn1-2` [ESTAZOLAM], the half-life [8] was 10 to 24 h.

Work on `COC(=O)C(c1ccccc1)C1CCCCN1` (stereo unspecified) [METHYLPHENIDATE] yielded a half-life [9] of 2 h.

In the case of `CCC(=O)NC[C@@H]1C[C@H]1c1cccc2c1CCO2` [TASIMELTEON], the half-life [9] is reported as 0.9 to 1.7 h.

`CN(C)CC/C=C1\c2ccccc2COc2ccccc21` [E-DOXEPIN] showed a half-life [10] of 8 to 24 h.

For `CNCCC(Oc1ccc(C(F)(F)F)cc1)c1ccccc1` (stereo unspecified) [FLUOXETINE], the half-life [9] was 24 to 96 h.

With `Cc1ccc(-c2nc3ccc(C)cn3c2CC(=O)N(C)C)cc1` [ZOLPIDEM] the half-life [11] was 1.4 to 4.5 h.

`CC[C@H]1OC(=O)[C@H](C)[C@@H](O[C@H]2C[C@@](C)(OC)[C@@H](O)[C@H](C)O2)[C@H](C)[C@@H](O[C@@H]2O[C@H](C)C[C@H](N(C)C)[C@H]2O)[C@](C)(OC)C[C@@H](C)C(=O)[C@H](C)[C@@H](O)[C@]1(C)O` [CLARITHROMYCIN] showed a half-life [12] of 5 to 7 h.

`O=C([O-])CCCO.[Na+]` [SODIUM OXYBATE] gave a half-life [13] of 0.6 h.

Molecule `CN1CCN(C(=O)O[C@H]2c3nccnc3C(=O)N2c2ccc(Cl)cn2)CC1` [ESZOPICLONE] has a half-life [14] of 6 h.

`Cc1ccc(-n2nccn2)c(C(=O)N2CCN(c3nc4cc(Cl)ccc4o3)CC[C@H]2C)c1` [SUVOREXANT] showed a half-life [15] of 9 to 13 h.

Molecule `NC[C@H](CC(=O)O)c1ccc(Cl)cc1` [ARBACLOFEN] has a half-life [16] of 2 to 4 h.

Work on `NC(=O)C[S@@+]([O-])C(c1ccccc1)c1ccccc1` [ARMODAFINIL] yielded a half-life [17] of 15 h and a half-life [6] of 15 h.

In the case of `COc1ccc2[nH]cc(CCNC(=O)c3cc(=O)cco3)c2c1` [PIROMELATINE], the half-life [18] is reported as 1 to 3 h.

Molecule `NCCC(Oc1ccc(C(F)(F)F)cc1)c1ccccc1` (stereo unspecified) [NORFLUOXETINE] has a half-life [19] of 360 to 408 h.

`OC1(c2ccc(Cl)cc2)c2ccccc2C2=NCCN21` (stereo unspecified) [MAZINDOL] gave a half-life [14] of 10 to 13 h.

In the case of `COc1ccc(C(CN(C)C)C2(O)CCCCC2)cc1` (stereo unspecified) [VENLAFAXINE], the half-life [20] is reported as 5 h.

`CN(C)CC(c1ccc(O)cc1)C1(O)CCCCC1` (stereo unspecified) [DESVENLAFAXINE] showed a half-life [20] of 11 h.

For `CCOC(=O)c1ncn2c1CN(C)C(=O)c1cc(F)ccc1-2` [FLUMAZENIL], the half-life [21] was 0.6 to 1.2 h.
